Assay results taken from patent publication US20220187282A1, “CARDIOMYOCYTE PROLIFERATION” (The Council of the Queensland Institute of Medical Research, priority 2019, published 2022).
Entries after “also recorded” stand apart in the source; their conditions may differ. Like-named read-outs stand apart in the source and are kept apart here.

Assays:
Assay type in all cases: biochemical
kinases [1] = molecular target: kinases (Homo sapiens, UniProt Q7L7X3); conditions: TAOK1 FRET-Lantha SP; Test Conc(μM) 1
kinases [2] = molecular target: kinases (Homo sapiens, UniProt O14986); conditions: Test Conc(μM):ATP Conc(μM) 1:10
kinases [3] = molecular target: kinases (Homo sapiens, UniProt Q9UQM7); conditions: CAMK2A FRET-Z-Lyte SP; Test Conc(μM):ATP Conc(μM) 1:10
kinases [4] = molecular target: kinases (Homo sapiens, UniProt Q9Y3S1); conditions: WNK2 FRET-Lantha SP; Test Conc(μM) 1
Chain of kinases (Homo sapiens, UniProt Q9Y3S1) (Q9Y3S1 whole entry): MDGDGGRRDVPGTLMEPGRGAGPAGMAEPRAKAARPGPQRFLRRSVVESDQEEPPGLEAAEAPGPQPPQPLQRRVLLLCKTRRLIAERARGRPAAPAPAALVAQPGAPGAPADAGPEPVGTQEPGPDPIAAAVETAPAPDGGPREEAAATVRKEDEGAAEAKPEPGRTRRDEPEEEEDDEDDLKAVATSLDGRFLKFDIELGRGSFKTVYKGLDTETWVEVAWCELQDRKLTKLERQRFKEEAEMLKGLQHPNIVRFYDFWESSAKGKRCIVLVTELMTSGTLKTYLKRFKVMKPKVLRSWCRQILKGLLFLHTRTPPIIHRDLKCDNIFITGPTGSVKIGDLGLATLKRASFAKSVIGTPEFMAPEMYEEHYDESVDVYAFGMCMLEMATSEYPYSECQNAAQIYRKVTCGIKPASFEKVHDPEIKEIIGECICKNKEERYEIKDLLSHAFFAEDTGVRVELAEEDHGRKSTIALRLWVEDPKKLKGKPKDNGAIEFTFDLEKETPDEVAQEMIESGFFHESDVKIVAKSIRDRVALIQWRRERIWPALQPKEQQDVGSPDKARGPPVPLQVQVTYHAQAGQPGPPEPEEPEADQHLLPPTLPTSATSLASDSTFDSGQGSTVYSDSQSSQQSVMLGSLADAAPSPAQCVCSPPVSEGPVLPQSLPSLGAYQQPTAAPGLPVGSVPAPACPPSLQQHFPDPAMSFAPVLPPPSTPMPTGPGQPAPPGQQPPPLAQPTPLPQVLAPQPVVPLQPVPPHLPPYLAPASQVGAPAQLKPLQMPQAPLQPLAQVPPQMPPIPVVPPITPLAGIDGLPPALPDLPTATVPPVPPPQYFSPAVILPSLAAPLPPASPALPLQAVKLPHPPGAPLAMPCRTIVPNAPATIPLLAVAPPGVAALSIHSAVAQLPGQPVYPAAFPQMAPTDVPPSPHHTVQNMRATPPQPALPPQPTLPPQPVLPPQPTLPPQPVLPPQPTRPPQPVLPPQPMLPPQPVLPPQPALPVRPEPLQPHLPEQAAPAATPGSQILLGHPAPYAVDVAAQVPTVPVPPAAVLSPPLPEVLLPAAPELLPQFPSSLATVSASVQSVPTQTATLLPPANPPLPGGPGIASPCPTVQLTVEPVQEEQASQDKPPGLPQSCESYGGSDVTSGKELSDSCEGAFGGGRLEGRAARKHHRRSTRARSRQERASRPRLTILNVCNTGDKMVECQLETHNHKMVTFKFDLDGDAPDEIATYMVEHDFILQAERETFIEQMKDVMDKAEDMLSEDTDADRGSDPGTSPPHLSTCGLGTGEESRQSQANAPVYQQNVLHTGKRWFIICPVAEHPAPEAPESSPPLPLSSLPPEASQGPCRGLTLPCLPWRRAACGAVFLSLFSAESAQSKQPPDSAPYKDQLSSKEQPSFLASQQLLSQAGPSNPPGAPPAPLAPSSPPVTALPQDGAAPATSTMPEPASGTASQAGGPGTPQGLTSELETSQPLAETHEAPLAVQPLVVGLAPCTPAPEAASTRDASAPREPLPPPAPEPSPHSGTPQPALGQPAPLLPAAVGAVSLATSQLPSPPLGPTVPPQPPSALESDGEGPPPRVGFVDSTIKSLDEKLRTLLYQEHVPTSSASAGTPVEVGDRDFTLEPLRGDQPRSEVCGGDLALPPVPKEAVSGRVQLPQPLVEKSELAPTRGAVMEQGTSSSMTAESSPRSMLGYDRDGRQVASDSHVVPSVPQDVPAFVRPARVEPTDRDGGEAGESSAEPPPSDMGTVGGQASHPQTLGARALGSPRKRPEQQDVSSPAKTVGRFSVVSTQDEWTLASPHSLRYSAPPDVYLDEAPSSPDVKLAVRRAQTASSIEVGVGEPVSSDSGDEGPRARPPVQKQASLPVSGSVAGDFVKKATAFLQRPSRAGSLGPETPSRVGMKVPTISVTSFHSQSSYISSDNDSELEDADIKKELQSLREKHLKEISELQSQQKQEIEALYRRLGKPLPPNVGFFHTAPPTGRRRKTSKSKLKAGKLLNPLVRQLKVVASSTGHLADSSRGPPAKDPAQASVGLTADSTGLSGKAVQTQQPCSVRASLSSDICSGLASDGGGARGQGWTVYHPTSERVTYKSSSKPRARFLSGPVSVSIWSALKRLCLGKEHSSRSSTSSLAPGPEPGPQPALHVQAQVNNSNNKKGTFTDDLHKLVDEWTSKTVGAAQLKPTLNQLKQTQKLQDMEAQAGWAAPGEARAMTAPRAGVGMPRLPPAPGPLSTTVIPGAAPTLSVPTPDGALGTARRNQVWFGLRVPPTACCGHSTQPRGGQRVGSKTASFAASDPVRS

kinases [5] = molecular target: kinases (Homo sapiens, UniProt P37023); conditions: ACVRL1 (ALK1) FRET-Lantha SP; Test Conc(μM) 1
kinases [6] = molecular target: kinases (Homo sapiens, UniProt P42356); conditions: PI4KA FRET-Adapta SP; Test Conc(μM):ATP Conc(μM) 1:10
kinases [7] = molecular target: kinases (Homo sapiens, UniProt Q9H4B4); conditions: PLK3 FRET-Z-Lyte SP; Test Conc(μM):ATP Conc(μM) 1:50
kinases [8] = molecular target: kinases (Homo sapiens, UniProt Q13882); conditions: PTK6 (Brk) *Mn* FRET-Z-Lyte SP; Test Conc(μM):ATP Conc(μM) 1:75
kinases [9] = molecular target: kinases (Homo sapiens, UniProt Q9P289); conditions: MST4 FRET-Z-Lyte SP; Test Conc(μM):ATP Conc(μM) 1:25
kinases [10] = molecular target: kinases (Homo sapiens, UniProt Q86YV6); conditions: MYLK4 FRET-Lantha SP; Test Conc(μM) 1
kinases [11] = molecular target: kinases (Homo sapiens, UniProt Q6VAB6); conditions: KSR2 FRET-Z-Lyte SP; Test Conc(μM):ATP Conc(μM) 1:10
kinases [12] = molecular target: kinases (Homo sapiens, UniProt Q04912); conditions: MST1R (RON) FRET-Z-Lyte SP; Test Conc(μM):ATP Conc(μM) 1:10
kinases [13] = molecular target: kinases (Homo sapiens, UniProt Q9UPZ9); conditions: ICK FRET-Lantha SP; Test Conc(μM) 1
kinases [14] = molecular target: kinases (Homo sapiens, UniProt Q09013); conditions: DMPK FRET-Lantha SP; Test Conc(μM) 1
kinases [15] = molecular target: kinases (Homo sapiens, UniProt P07948); conditions: LYN A Hu Phos FRET-Z-Lyte SP; Test Conc(μM):ATP Conc(μM) 1:25
kinases [16] = molecular target: kinases (Homo sapiens, UniProt Q9H3Y6); conditions: SRMS (Srm) FRET-Z-Lyte SP; Test Conc(μM):ATP Conc(μM) 1:150
kinases [17] = molecular target: kinases (Homo sapiens, UniProt P50613); conditions: CDK7/cyclin H/MNAT1 Adapta SP; Test Conc(μM):ATP Conc(μM) 1:150
kinases [18] = molecular target: kinases (Homo sapiens, UniProt Q02763); conditions: TEK (Tie2) *Mn* FRET-Z-Lyte SP; Test Conc(μM):ATP Conc(μM) 1:10
kinases [19] = molecular target: kinases (Homo sapiens, UniProt O60331); conditions: Test Conc(μM):ATP Conc(μM) 1:10
kinases [20] = molecular target: kinases (Homo sapiens, UniProt Q05513); conditions: PRKCZ (PKC zeta) Z-Lyte SP; Test Conc(μM):ATP Conc(μM) 1:5
Chain of kinases (Homo sapiens, UniProt Q05513) (Q05513 whole entry): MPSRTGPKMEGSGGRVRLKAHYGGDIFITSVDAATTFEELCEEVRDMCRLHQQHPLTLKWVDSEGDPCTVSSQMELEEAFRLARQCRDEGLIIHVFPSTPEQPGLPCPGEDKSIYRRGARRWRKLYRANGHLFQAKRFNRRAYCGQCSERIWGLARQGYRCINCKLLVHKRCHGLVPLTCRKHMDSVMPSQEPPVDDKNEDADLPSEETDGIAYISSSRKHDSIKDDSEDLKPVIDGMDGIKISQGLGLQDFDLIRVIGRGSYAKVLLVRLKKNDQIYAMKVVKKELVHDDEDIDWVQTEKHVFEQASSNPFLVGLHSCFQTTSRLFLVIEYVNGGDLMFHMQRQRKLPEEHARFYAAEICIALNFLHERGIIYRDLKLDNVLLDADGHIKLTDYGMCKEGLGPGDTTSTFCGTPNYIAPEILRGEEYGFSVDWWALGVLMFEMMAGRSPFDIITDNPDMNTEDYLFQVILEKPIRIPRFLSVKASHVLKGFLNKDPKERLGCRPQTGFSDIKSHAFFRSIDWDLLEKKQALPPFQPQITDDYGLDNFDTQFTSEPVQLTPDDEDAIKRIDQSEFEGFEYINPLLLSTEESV

kinases [21] = molecular target: kinases (Homo sapiens, UniProt P42684); conditions: ABL2 (Arg) FRET-Z-Lyte SP; Test Conc(μM):ATP Conc(μM) 1:25
kinases [22] = molecular target: kinases (Homo sapiens, UniProt Q9NRA0); conditions: SPHK2 FRET-Adapta SP; Test Conc(μM):ATP Conc(μM) 1:10
kinases [23] = molecular target: kinases (Homo sapiens, UniProt Q16584); conditions: MAP3K11 (MLK3) FRET-Lantha SP; Test Conc(μM) 1
Chain of kinases (Homo sapiens, UniProt Q16584) (Q16584 whole entry): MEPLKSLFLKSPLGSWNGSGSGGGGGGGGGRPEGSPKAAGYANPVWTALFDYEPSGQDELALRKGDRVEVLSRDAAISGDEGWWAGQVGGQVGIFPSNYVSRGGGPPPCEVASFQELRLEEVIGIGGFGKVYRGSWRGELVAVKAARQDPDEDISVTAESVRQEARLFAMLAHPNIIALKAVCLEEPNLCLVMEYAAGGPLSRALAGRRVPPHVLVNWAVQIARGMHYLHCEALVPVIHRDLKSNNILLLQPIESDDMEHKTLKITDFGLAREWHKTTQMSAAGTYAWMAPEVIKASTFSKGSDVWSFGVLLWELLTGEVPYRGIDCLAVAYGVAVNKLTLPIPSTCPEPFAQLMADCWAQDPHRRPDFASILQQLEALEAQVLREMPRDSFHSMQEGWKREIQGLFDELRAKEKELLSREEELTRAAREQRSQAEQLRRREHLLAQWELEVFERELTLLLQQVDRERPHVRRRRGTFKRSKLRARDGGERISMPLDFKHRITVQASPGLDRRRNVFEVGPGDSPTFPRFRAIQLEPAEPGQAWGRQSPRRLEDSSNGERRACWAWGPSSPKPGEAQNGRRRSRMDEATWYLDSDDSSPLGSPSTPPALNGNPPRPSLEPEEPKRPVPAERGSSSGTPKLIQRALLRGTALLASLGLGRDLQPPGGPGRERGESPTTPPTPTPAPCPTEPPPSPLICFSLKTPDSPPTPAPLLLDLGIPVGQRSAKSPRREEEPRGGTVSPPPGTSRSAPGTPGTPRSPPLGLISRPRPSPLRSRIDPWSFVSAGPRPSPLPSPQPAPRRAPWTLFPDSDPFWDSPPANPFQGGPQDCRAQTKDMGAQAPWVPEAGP

kinases [24] = molecular target: kinases (Homo sapiens, UniProt Q8IWQ3); conditions: BRSK2 FRET-Lantha SP; Test Conc(μM) 1
kinases [25] = molecular target: kinases (Homo sapiens, UniProt P42681); conditions: TXK FRET-Z-Lyte SP; Test Conc(μM):ATP Conc(μM) 1:100
kinases [26] = molecular target: kinases (Homo sapiens, UniProt P78362); conditions: SRPK2 FRET-Z-Lyte SP; Test Conc(μM):ATP Conc(μM) 1:25
kinases [27] = molecular target: kinases (Homo sapiens, UniProt Q9H2G2); conditions: SLK Hu Bind FRET-Lantha SP; Test Conc(μM) 1
Chain of kinases (Homo sapiens, UniProt Q9H2G2) (Q9H2G2 whole entry): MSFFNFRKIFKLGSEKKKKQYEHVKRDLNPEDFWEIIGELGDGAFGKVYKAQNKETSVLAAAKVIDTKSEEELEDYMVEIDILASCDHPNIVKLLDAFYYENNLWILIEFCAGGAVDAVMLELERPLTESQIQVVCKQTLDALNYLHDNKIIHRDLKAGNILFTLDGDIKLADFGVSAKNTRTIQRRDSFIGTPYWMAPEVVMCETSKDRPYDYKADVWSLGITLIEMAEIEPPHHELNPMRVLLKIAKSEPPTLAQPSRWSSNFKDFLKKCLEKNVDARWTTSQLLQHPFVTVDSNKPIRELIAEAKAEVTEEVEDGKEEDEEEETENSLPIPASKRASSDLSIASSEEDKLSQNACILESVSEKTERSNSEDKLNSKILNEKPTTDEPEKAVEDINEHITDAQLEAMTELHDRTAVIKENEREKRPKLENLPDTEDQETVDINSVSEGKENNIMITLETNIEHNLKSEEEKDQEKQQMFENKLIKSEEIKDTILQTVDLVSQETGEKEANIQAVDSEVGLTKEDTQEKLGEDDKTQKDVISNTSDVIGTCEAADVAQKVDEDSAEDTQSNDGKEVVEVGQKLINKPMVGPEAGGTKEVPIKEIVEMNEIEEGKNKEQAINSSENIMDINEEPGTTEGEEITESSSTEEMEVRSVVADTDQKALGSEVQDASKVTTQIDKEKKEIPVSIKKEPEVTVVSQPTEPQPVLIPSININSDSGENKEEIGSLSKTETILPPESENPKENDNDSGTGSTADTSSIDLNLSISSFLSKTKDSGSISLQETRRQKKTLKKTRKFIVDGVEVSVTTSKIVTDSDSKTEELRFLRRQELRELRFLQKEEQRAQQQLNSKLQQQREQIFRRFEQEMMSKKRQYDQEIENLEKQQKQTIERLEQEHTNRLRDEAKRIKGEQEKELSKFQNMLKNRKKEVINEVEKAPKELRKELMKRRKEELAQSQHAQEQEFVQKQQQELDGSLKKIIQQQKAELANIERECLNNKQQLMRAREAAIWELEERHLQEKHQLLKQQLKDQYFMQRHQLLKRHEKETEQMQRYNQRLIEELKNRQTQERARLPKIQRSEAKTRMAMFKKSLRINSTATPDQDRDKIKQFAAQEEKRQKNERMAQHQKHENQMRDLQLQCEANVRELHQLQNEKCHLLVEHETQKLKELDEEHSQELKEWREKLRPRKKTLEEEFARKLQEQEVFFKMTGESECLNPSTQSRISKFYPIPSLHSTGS

kinases [28] = molecular target: kinases
kinases [29] = molecular target: kinases (Homo sapiens, UniProt P07949); conditions: RET Hu Phos FRET-Z-Lyte SP; Test Conc(μM):ATP Conc(μM) 1:10
[30] = LYN B FRET-Z-Lyte SP, Test Conc(μM):ATP Conc(μM) 1:25
[31] = PRKCB2 (PKC Beta II) Z-Lyte SP, Test Conc(μM):ATP Conc(μM) 1:200

SMILES | Mean Inhib (%) (kinases [1]) | Mean Inhib (%) (kinases [3]) | Mean Inhib (%) (kinases [4]) | Mean Inhib (%) (kinases [5]) | Mean Inhib (%) (kinases [6]) | Mean Inhib (%) (kinases [7]) | Mean Inhib (%) (kinases [8]) | Mean Inhib (%) (kinases [9]) | Mean Inhib (%) (kinases [10]) | Mean Inhib (%) (kinases [11]) | Mean Inhib (%) (kinases [12]) | Mean Inhib (%) (kinases [13]) | Mean Inhib (%) (kinases [14]) | Mean Inhib (%) (kinases [15]) | Mean Inhib (%) (kinases [16]) | Mean Inhib (%) (kinases [17]) | Mean Inhib (%) (kinases [18]) | Mean Inhib (%) (kinases [20]) | Mean Inhib (%) (kinases [21]) | Mean Inhib (%) (kinases [22]) | further results
Cc1ccc(NC(=O)c2ccnc(N3CCOCC3)c2)cc1Nc1ccnc(N2CC(C)OC(C)C2)n1 (stereo not shown) [compound 3] | −6.0 | 1.0 | 9.6 | 7.2 | 4.3 | 5.8 | 3.5 | 16.7 | 5.1 | 3.9 | −8.2 | 0.3 | 7.1 | 6.3 | 6.2 | −2.3 | −4.4 | 12.0 | −1.3 | −9.4 | Mean Inhib (%) (kinases [2]; PIP5K1B FRET-Adapta SP): 4.5%; Mean Inhib (%) (kinases [19]; PIP5K1C FRET-Adapta SP): −4.5%; Mean Inhib (%) (kinases [23]): −0.7%; Mean Inhib (%) (kinases [24]): 3.2%; Mean Inhib (%) (kinases [25]): 5.1%; Mean Inhib (%) (kinases [26]): −1.9%; Mean Inhib (%) (kinases [27]): −3.6%; kinase specificity (kinase inhibition profile) (kinases [28]): strong specificity in targeting p38α; also recorded: very specific for p38α/β; Mean Inhib (%) (kinases [28]; [30]): 16.3%; Mean Inhib (%) (kinases [28]; [31]): −11.1%; Mean Inhib (%) (kinases [29]): 22.8%
Cc1cc(Oc2ccnc(Nc3ccc(S(N)(=O)=O)cc3)c2)c(-c2ccccn2)nc1C [compound 65] | 33.0 | −3.3 | 5.8 | 77.2 | −6.0 | −4.9 | 32.3 | −9.9 | 14.6 | 1.6 | 5.3 | 6.0 | 0.5 | 49.5 | 1.5 | −2.2 | −7.9 | −22.4 | 82.6 | −1.2 | PIP5K1B FRET-Adapta SP Mean Mean Inhib (%) (kinases [2]; PIP5K1B): 2.1%; PIP5K1C FRET-Adapta SP Mean Mean Inhib (%) (kinases [19]; PIP5K1C): 3.2%; Mean Inhib (%) (kinases [23]): −0.8%; Mean Inhib (%) (kinases [24]): 10.2%; Mean Inhib (%) (kinases [25]): 44.8%; Mean Inhib (%) (kinases [26]): 1.9%; Mean Inhib (%) (kinases [27]): 3.0%; Mean Inhib (%) (kinases [28]; [30]): 42.0%; Mean Inhib (%) (kinases [28]; [31]): −1.0%; Mean Inhib (%) (kinases [29]): 31.0%
